Data: the NIST ThermoML archive (doi:10.1016/j.tca.2007.02.022)
Where “and” joins values, the source holds several entries; their conditions need not be identical. Equal entries are not always repeated.

Key:
[1] = Crystal
[2] = Molar enthalpy of transition or fusion; settings: Crystal
[3] = molar heat capacity at constant pressure; settings: 101.33 kPa

OC[C@@H](O)[C@H](O)[C@@H](O)CO [xylitol]
Settings	Molar enthalpy of transition or fusion	Triple point temperature
[1]	–	367.52 K and 369.06 K
[2]	8.05 kcal/mol and 7.95 kcal/mol	–

[3]
Settings	molar heat capacity at constant pressure [J/K/mol]
80 K, Crystal	63.67
80.07 K, Crystal	62.71
83.61 K, Crystal	65.01
85 K, Crystal	66.43
86.53 K, Crystal	67.25
89.49 K, Crystal	69.29
90 K, Crystal	69.62
92.49 K, Crystal	71.54
95 K, Crystal	73.13
95.54 K, Crystal	73.71
98.51 K, Crystal	75.94
100 K, Crystal	76.86
101.4 K, Crystal	78.2
104.34 K, Crystal	80.53
105 K, Crystal	80.73
107.35 K, Crystal	82.78
110 K, Crystal	84.68
110.28 K, Crystal	84.97
113.27 K, Crystal	87.33
115 K, Crystal	88.65
116.32 K, Crystal	89.39
119.31 K, Crystal	91.73
120 K, Crystal	92.61
122.25 K, Crystal	93.79
125 K, Crystal	96.54
125.24 K, Crystal	96.15
128.3 K, Crystal	98.38
130 K, Crystal	100.4
131.31 K, Crystal	100.5
134.27 K, Crystal	102.7
135 K, Crystal	104.2
137.29 K, Crystal	104.8
140 K, Crystal	108
140.38 K, Crystal	106.6
143.41 K, Crystal	109
145 K, Crystal	111.7
146.39 K, Crystal	111.2
149.42 K, Crystal	113.3
150 K, Crystal	115.3
152.51 K, Crystal	115.5
155 K, Crystal	118.9
155.56 K, Crystal	117.7
158.57 K, Crystal	119.8
160 K, Crystal	122.4
161.56 K, Crystal	121.9
164.6 K, Crystal	123.9
165 K, Crystal	126
167.69 K, Crystal	126
170 K, Crystal	129.5
170.76 K, Crystal	129.7
173.84 K, Crystal	132.3
175 K, Crystal	133
176.88 K, Crystal	134
179.99 K, Crystal	136
180 K, Crystal	136.6
183.16 K, Crystal	138
185 K, Crystal	140.1
186.3 K, Crystal	140.4
190 K, Crystal	143.7
192.5 K, Crystal	144.2
195 K, Crystal	147.3
195.64 K, Crystal	146.3
198.85 K, Crystal	148.5
200 K, Crystal	151
202.03 K, Crystal	150.3
205 K, Crystal	154.7
205.18 K, Crystal	152.4
208.33 K, Crystal	155.1
210 K, Crystal	158.4
211.45 K, Crystal	157.1
214.63 K, Crystal	159.5
215 K, Crystal	162.1
217.88 K, Crystal	161.4
220 K, Crystal	165.9
221.1 K, Crystal	163.8
224.3 K, Crystal	165.8
225 K, Crystal	169.6
227.46 K, Crystal	168.2
230 K, Crystal	173.4
230.62 K, Crystal	170.6
233.78 K, Crystal	172.5
235 K, Crystal	177.1
236.94 K, Crystal	174
240 K, Crystal	180.8
240.13 K, Crystal	176.1
243.21 K, Crystal	178.2
245 K, Crystal	184.4
246.34 K, Crystal	180.8
249.48 K, Crystal	182.2
250 K, Crystal	188
252.61 K, Crystal	184.3
255 K, Crystal	191.5
255.78 K, Crystal	186.3
258.93 K, Crystal	188.6
260 K, Crystal	195
262.07 K, Crystal	191
265 K, Crystal	198.3
265.19 K, Crystal	193.2
268.29 K, Crystal	195.2
270 K, Crystal	201.6
271.44 K, Crystal	197.5
274.65 K, Crystal	199.6
275 K, Crystal	204.8
277.84 K, Crystal	201.9
280 K, Crystal	208
281.02 K, Crystal	204.7
284.19 K, Crystal	207.3
285 K, Crystal	211.1
287.39 K, Crystal	210.2
290 K, Crystal	214.2
290.63 K, Crystal	212.7
293.83 K, Crystal	215.1
295 K, Crystal	217.4
297.06 K, Crystal	217.8
298.15 K, Crystal	219.4
300 K, Crystal	220.7
300.4 K, Crystal	220.6
303.7 K, Crystal	223.9
305 K, Crystal	224.2
310 K, Crystal	227.9
310.42 K, Crystal	229.1
314.19 K, Crystal	232.7
315 K, Crystal	232.1
318.33 K, Crystal	237.1
320 K, Crystal	236.9
322.65 K, Crystal	240.3
325 K, Crystal	242.4
326.89 K, Crystal	244.7
330 K, Crystal	248.8
331.21 K, Crystal	251.3
335 K, Crystal	256.3
335.57 K, Crystal	258.1
339.95 K, Crystal	261.8
340 K, Crystal	265.3
344.29 K, Crystal	261.9
345 K, Crystal	275.9
348.52 K, Crystal	262.4
350 K, Crystal	288.6
352.73 K, Crystal	271.3
355 K, Crystal	303.6
356.88 K, Crystal	286.2
360 K, Crystal	321.5
360.92 K, Crystal	323.9
370 K, Liquid	420.6
372.89 K, Liquid	422
375 K, Liquid	423.4
376.72 K, Liquid	424.4
380 K, Liquid	426.2
380.91 K, Liquid	427
385 K, Liquid	429
385.11 K, Liquid	428.8
390 K, Liquid	431.8
